The source of these data is patent EP0089635A2, “Phospholipid derivatives, process for preparation thereof and pharmaceutical composition of the same” (FUJISAWA PHARMACEUTICAL CO., LTD., priority 1982, dated 1983).

Holding throughout (format): in vivo, BALB/c mice
In data set [1] the test system is Fibrosarcoma Meth-A. Nature of the data set: Test Method A: antitumor effect on intradermally inoculated Meth-A tumor, intratumoral injection of test compound. Particulars: 100 µg/mouse intratumorally once daily Day 1 to Day 4; for Tumor growth inhibition (%) *b: (1-T/C)x100 of mean tumor diameter on Day 21; for Mean tumor size (mm) *a: female BALB/c mice, 1 x 10^5 Meth-A cells intradermally, mean diameter of tumor on Day 21; for Ratio of tumor free mice *c: groups of six mice.
Method: Fibrosarcoma Meth-A (hereinafter referred to as Meth-A) was successively transferred every 7 days into BALB/c mice by intraperitoneal inoculation of the ascites cells thereof and the Meth-A in the ascites cells as harvested 6 days after the inoculation was used as tumor cells.
Each of the BALB/c mice was inoculated intradermally with 1 x 10^5 Meth-A cells in 0.05 ml Hanks solution.
(§1) The control group was given with a vehicle alone in the same way.
The antitumor effectiveness of the test compound was estimated by tumor growth inhibition : (1-T/C)x100. • T : Mean diameter of the growing tumor of the medicated group on Day 21. • C : Mean diameter of the growing tumor of the control group on Day 21.

Data set [2] in a line: Test Method A: body weight of the treated mice. Particulars: 100 µg/mouse intratumorally once daily Day 1 to Day 4; for Body weight of mice (g) Day 0 *d: initial day. The protocol:
Groups of six female BALB/c mice, aged 12 weeks and weighing 19 - 21 g were used. Test compound was dissolved in 0.5% methylcellulose saline solution, and was intratumorally injected to each of the mice in doses of 100 µg/mouse once daily from Day 1 to Day 4 postimplant. Body weight was checked on initial day and Day 4.

Data set [3] concerns Fibrosarcoma Meth A. Nature of the data set: Test Method B: survival of mice inoculated intrapleurally with Meth A, injection of test compound into pleural cavity. More on the design: dose or concentration left out as unconfirmed. The note with it: for Anti-tumor activity (%) *f: T/C x 100 of mean survival time, into pleural cavity three times; for Mean survival time: female BALB/c mice, Meth A cells intrapleurally, into pleural cavity three times (before 14 days, after 1 hour, after 3 days of tumor implantation).
Method: Groups of eight female BALB/c mice, aged 8-9 weeks and weighing 18.0-22.5 g were used.
Fibrosarcoma Meth A (hereinafter referred to as Meth A) was successively transferred every 7 days into BALB/c mice by intraperitoneal inoculation of the ascites cells thereof and the Meth A in the ascites cells as harvested 6 or 7 days after the inoculation was used as tumor cells.
Each of the BALB/c mice was inoculated intrapleurally with 5 x 10 Meth A cells in 0.1 ml Hanks solution.
Test compound was dissolved in phosphate buffer saline solution, and was injected into pleural cavity to each of the mice in doses of 100 pg/0.05 ml/mouse three times, i.e. before 14 days, after I hour and after 3 days of tumor implantation.
as §1
The antitumor activity of the test compound was estimated by comparing mean survival time of the two groups. • T : Mean survival time of the medicated group • C : Mean survival time of the control group

In the case of `CCCCCCCCCCCCCCCCCCOCC(COP(=O)(O)OCCN1CCN(C)CC1)OC(N)=O` (racemic) [Example 4, (rac)-l-O-Octadecyl-2-0-carbamoyl-glycerol-3-[2-(4-methyl-l-piperazinyl)ethyl]phosphate], in data set [1], the “Tumor growth inhibition (%) *b” value was determined as 100%, the “Mean tumor size (mm) *a” value came out at 0 mm and the “Ratio of tumor free mice *c” value is 6/6. Further, in data set [2], the “Body weight of mice (g) Day 4 *e” value is 20.2 ± 1.11 g and the “Body weight of mice (g) Day 0 *d” value amounted to 19.5 ± 0.60 g. Further, in data set [3], the “Anti-tumor activity (%) *f” value worked out at 236% and the “Mean survival time” value was 16.5 days.

In the case of `CCCCCCCCCCCCCCCCCCOCC(COP(=O)([O-])OCC[n+]1ccccc1)OC(N)=O` (racemic) [Example 3 - (4), (rac)-1-O-0ctadecyl-2-O-carbamoyl-glycerol-3-[2-(1-pyridinio)ethyl]phosphate], in data set [3], the “Anti-tumor activity (%) *f” value is on record as 536% and the “Mean survival time” value was 37.5 days.

`CCCCCCCCCCCCCCCCCCOCC(COP(=O)([O-])OCC[n+]1ccccc1)OC(=O)NC` (racemic) [Example 1 - (4), (rac)-1-O-octadecyl-2-O-methylcarbamoyl-glycerol-3-[2-(1-pyridinio)ethyl]-phosphate]: in data set [1], the “Tumor growth inhibition (%) *b” value is listed as 100%, the “Mean tumor size (mm) *a” value turned out to be 0 mm and the “Ratio of tumor free mice *c” value is 6/6. For the same compound, in data set [2], the “Body weight of mice (g) Day 4 *e” value was determined as 19.1 ± 1.68 g and the “Body weight of mice (g) Day 0 *d” value is listed as 18.3 ± 1.11 g.

As for `CCCCCCCCCCCCCCCCCCOCC(COP(=O)([O-])OCC[n+]1ccccc1)OC(=O)Nc1ccccc1` (racemic) [Example 2 - (4), (rac)-1-O-Octadecyl-2-O-phenylcarbamoyl-glycerol-3-[2-(l-pyridinio)ethyl]phosphate], in data set [3], the “Anti-tumor activity (%) *f” value was found to be 117% and the “Mean survival time” value was found to be 7.0 days.
